Experiment [1] addresses T1, recombinant full-length TDP1 (Homo sapiens, UniProt Q9NUW8). Description: gel-based TDP1 fluorescence assay in vitro (wild-type TDP1).
Description: The inhibition of TDP1 or TDP1^Y204F was also conducted using a gel-based assay as previously described[13],[14]. Briefly, the DNA substrate (1 nM, 5′Cy5-[sequence]-pY-3′, Cy5-N14Y) was incubated for 15 min. with recombinant full-length TDP1 or TDP1^Y204F (40 pM) in the absence or presence of inhibitors for 5 min. or 3 hr preincubation time as shown in Table 1 at room temperature (22 °C) in TDP1 reaction buffer (50 mM Tris HCl, pH 7.5, 80 mM KCl, 2 mM EDTA, 1 mM DTT, 40 µg/mL BSA and 0.01% Tween-20). […] Samples were then subjected to a 20% denaturing PAGE gel following by gel scanning using a Typhoon FLA 9500 scanner (GE Healthcare). The IC50 values of TDP1 inhibitors were calculated by comparing the percentage of cleavage product (5′Cy5-[sequence]-p-3′, Cy5-N14P) to DMSO control.
For the next experiment, the target named is T2, TDP1^Y204F (Homo sapiens, UniProt Q9NUW8, Y204F).
T2 construct: was incubated for 15 min. with recombinant full-length TDP1 or TDP1^Y204F (40 pM)
Description: gel-based TDP1 fluorescence assay in vitro (mutant TDP1 Y204F). The experiment is classed as biochemical. As to the method: The inhibition of TDP1 or TDP1^Y204F was also conducted using a gel-based assay as previously described[13],[14]. Briefly, the DNA substrate (1 nM, 5′Cy5-[…]-pY-3′, Cy5-N14Y) was incubated for 15 min. with recombinant full-length TDP1 or TDP1^Y204F (40 pM) in the absence or presence of inhibitors for 5 min. or 3 hr preincubation time as shown in Table 1 at room temperature (22 °C) in TDP1 reaction buffer (50 mM Tris HCl, pH 7.5, 80 mM KCl, 2 mM EDTA, 1 mM DTT, 40 µg/mL BSA and 0.01% Tween-20). […] Samples were then subjected to a 20% denaturing PAGE gel following by gel scanning using a Typhoon FLA 9500 scanner (GE Healthcare). The IC50 values of TDP1 inhibitors were calculated by comparing the percentage of cleavage product (5′Cy5-[…]-p-3′, Cy5-N14P) to DMSO control.

A further experiment concerns the target T3, TDP1(148-608) (Homo sapiens, UniProt Q9NUW8).
T3 construct: The recombinant TDP1(148-608) (2 μg) in 50 μL of buffer
Nature of the experiment: intact mass LC-MS analysis of covalent modification. The class given is binding. The conditions noted are these: 50 μM compound, overnight 25 °C, 1:65 enzyme/compound. As to the method: The samples were incubated overnight at 25 °C with shaking at 500 rpm. The samples were diluted with water to 100 μL and analyzed by liquid chromatography coupled online with mass spectrometry (LC-MS)[67]. Separation was performed on a Vanquish Flex chromatographic system (Thermo) using a MabPac reversed-phase column (4 μm, 1500 Å, 3 ×50 mm, Thermo) maintained at 50 °C. The labeled proteins were resolved at 0.5 mL/min over a 15 min gradient of buffer B (47.5% acetonitrile, 47.5% isopropanol, 5% water, 0.2% formic acid (FA)) from 2 to 100% followed by re-equilibration at 2% buffer B (total run time 20 min) against buffer A (5% acetonitrile, 0.2% FA in water). The eluates from the column were introduced to an Exactive Plus EMR mass spectrometer (Thermo) through a heated electrospray ionization (HESI) source. Intact mass spectra were acquired over 500-2000 m/z window at 35,000 FT resolution (at 200 m/z), averaging 10 microscans, with an AGC target of 3 ×10^6, max injection time of 200 ms, 80% S-lens RF level, 20 V source-induced dissociation, and capillary temperature set at 275 °C. The resulting spectra were manually averaged followed by deconvolution using the ReSpect algorithm in BioPharma Finder 2.0 (Thermo). […]

Experiment [2] concerns the target T1, recombinant full-length TDP1. More on the design: was incubated for 15 min. with recombinant full-length TDP1 or TDP1^Y204F (40 pM); method as in PMID 31199869. The conditions noted are these: reported data; cited from earlier work.
The mark [3] stands for this setting: TDP1 IC50, pre-incubation time 5 min with wild-type (WT) TDP1.

One may read the IC50 as the concentration that inhibits the measured activity by half.

Structures are written as SMILES. Like-named read-outs stand apart in the source and are kept apart here. Bounds are passed on as bounds.

T1 sequence (Q9NUW8 whole entry): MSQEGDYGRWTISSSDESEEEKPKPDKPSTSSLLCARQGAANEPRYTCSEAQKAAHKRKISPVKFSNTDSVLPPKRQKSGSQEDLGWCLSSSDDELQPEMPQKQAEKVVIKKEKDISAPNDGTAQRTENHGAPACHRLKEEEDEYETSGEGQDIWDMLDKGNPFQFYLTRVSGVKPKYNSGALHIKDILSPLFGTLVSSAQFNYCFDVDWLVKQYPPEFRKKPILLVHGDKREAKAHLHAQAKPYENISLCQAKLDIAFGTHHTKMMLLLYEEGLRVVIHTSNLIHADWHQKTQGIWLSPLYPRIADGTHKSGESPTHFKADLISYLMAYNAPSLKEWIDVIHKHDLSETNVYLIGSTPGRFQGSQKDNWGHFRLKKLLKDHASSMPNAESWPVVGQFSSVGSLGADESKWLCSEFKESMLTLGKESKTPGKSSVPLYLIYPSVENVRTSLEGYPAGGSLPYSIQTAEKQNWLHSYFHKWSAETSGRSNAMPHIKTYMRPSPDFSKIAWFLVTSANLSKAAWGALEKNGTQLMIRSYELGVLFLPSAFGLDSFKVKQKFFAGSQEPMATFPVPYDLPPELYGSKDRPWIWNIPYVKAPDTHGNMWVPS
T2 sequence (Q9NUW8 whole entry Y204F): as the sequence (Q9NUW8 whole entry) above, with Y204F counted along it
T3 sequence (Q9NUW8 148-608): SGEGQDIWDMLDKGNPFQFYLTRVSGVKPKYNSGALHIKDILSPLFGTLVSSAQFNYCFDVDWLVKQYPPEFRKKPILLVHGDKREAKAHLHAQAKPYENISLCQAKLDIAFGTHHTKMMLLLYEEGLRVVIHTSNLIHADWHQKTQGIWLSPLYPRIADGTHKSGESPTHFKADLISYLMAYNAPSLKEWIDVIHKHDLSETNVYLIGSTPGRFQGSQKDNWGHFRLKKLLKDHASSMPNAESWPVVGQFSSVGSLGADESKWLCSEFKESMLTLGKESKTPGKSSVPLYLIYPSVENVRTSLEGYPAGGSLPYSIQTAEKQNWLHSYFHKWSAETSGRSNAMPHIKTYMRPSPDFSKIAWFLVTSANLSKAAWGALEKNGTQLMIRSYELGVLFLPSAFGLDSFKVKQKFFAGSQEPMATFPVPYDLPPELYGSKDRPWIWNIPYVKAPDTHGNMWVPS

Take `O=C(O)c1c[nH]c2c(S(=O)(=O)O)cccc2c1=O` [Compound 2a]: in experiment [1], the half-maximal inhibitory concentration (IC50) was determined as 4.61 ± 0.35 mM.
Same read-out and setting: to `O=C(O)c1c[nH]c2c(S(=O)(=O)Nc3ccccc3)cccc2c1=O` [Compound 2b] belongs more than 9 mM.
The same measure, in the same setting: to `O=C(O)c1c[nH]c2c(S(=O)(=O)NCCc3ccccc3)cccc2c1=O` [Compound 2c] belongs more than 9 mM.
In the case of `O=C(O)c1c[nH]c2c(S(=O)(=O)NCCCc3ccccc3)cccc2c1=O` [Compound 2d], in experiment [1] (read-out: TDP1 IC50, WT TDP1, dash = no activity up to highest tested concentration), the IC50 is more than 9 mM.
On to `O=C(O)c1c[nH]c2c(-c3cccc(OS(=O)(=O)F)c3)cccc2c1=O` [Compound 3d], for which the IC50 in experiment [1] (setting [3]) amounted to 0.69 ± 0.04 mM.
For the compound `O=C(NCCc1ccccc1)c1ccc(-c2cccc3c(=O)c(C(=O)O)c[nH]c23)c(OS(=O)(=O)F)c1` [Compound 3g, 8-(2-((fluorosulfonyl)oxy)-4-(phenethylcarbamoyl)phenyl)-4-oxo-1,4-dihydroquinoline-3-carboxylic acid], the IC50 at TDP1^Y204F came to 4.69 ± 1.26 mM; in experiment [1] (setting [3]), 0.41 ± 0.07 mM; in experiment [1] (TDP1 IC50, pre-incubation time 3 h with WT TDP1), 0.27 ± 0.03 mM. Besides, at TDP1^Y204F (5 min pre-incubation), the “fold reduced inhibitory potency with mutant TDP1^Y204F vs WT” value was 11 fold. In addition, at TDP1(148-608), the “mass shift of single covalent modification of TDP1(148-608) (loss of fluorine)” value is “+490.83 Da”. Further, the “fold increase in inhibitory potency relative to parent compound 3c” value in experiment [1] fell in the range of 5 to 10 fold. Besides, the “fold increase in inhibitory potency compared with quinolone 1a” value in experiment [1] (5 min pre-incubation, WT TDP1, vs 1a IC50 7.2 mM) worked out at 18 fold. Moreover, the “fold increase in TDP1 inhibitory potency compared to quinolone 3a” value in experiment [1] (5 min pre-incubation, WT TDP1, vs 3a IC50 5.17 mM) came out at 13 fold. Moreover, the “fold enhancement of IC50 by extending pre-incubation time from 5 min to 3 h” value in experiment [1] (WT TDP1) amounted to 1.5 fold.
Take `O=C(O)c1cnc2ccccc2c1O` [Compound 1a]: in experiment [2], the IC50 is 7.2 mM.
On to `O=C(O)c1c[nH]c2c(-c3ccccc3)cccc2c1=O` [Compound 3a], for which the IC50 in experiment [1] was found to be 5.17 ± 0.14 mM.

The values are drawn from PMC11405833, “Targeted sulfur(VI) fluoride exchange-mediated covalent modification of a tyrosine residue in the catalytic pocket of tyrosyl-DNA phosphodiesterase 1” (Communications Chemistry, 2024).
